Test results: the supplement of paper PMC6965134
± gives the standard deviation of the averaged measurements. Blank lines part the entries; values can stand above or below the compound they belong to.

Assay: TIMS collisional cross section (CCS, N2) of the lipid ion; higher = larger ion cross section
Settings: ionization mode: positive, one isomer drawn

SMILES: CCCCC/C=C\C/C=C\C/C=C\CCCCCCC(=O)OC[C@@H](O)COP(=O)([O-])OCC[N+](C)(C)C [LPC 20:3_0:0] (ion (formula + adduct): [C28H52NO7P+H] 1+)
- TIMS collisional cross section (sample type: Liver): 231.55 ± 1.1 Å²
- TIMS collisional cross section (sample type: plasma): 232.43 ± 1.2 Å²

SMILES: CCCCC/C=C\C/C=C\C/C=C\C/C=C\CCCC(=O)OC[C@@H](O)COP(=O)([O-])OCC[N+](C)(C)C [LPC 20:4] (ion (formula + adduct): [C28H50NO7P+H] 1+)
- TIMS collisional cross section (sample type: Liver): 230 Å²
- TIMS collisional cross section (sample type: plasma): 231.65 ± 3.2 Å²

SMILES: CCCCC/C=C\C/C=C\C/C=C\C/C=C\CCCC(=O)O[C@H](CO)COP(=O)([O-])OCC[N+](C)(C)C [LPC 20:4] (ion (formula + adduct): [C28H50NO7P+H] 1+)
- TIMS collisional cross section (sample type: plasma): 231.1 Å²

SMILES: CC/C=C\C/C=C\C/C=C\C/C=C\C/C=C\CCCC(=O)OC[C@@H](O)COP(=O)([O-])OCC[N+](C)(C)C [LPC 20:5_0:0] (ion (formula + adduct): [C28H48NO7P+H] 1+)
- TIMS collisional cross section (sample type: plasma): 226.4 Å²

SMILES: CCCCCCCCCC/C=C\CCCCCCCCCC(=O)OC[C@@H](O)COP(=O)([O-])OCC[N+](C)(C)C [LPC 22:1] (ion (formula + adduct): [C30H60NO7P+H] 1+)
- TIMS collisional cross section (sample type: HeLa): 247.3 Å²
- TIMS collisional cross section (sample type: plasma): 247.6 Å²

SMILES: CCCCCCCCCC/C=C\CCCCCCCCCC(=O)OC[C@@H](O)COP(=O)([O-])OCC[N+](C)(C)C [LPC 22:1_0:0] (ion (formula + adduct): [C30H60NO7P+H] 1+)
- TIMS collisional cross section (sample type: HeLa): 246.1 Å²
- TIMS collisional cross section (sample type: plasma): 246.6 Å²

SMILES: CCCCC/C=C\C/C=C\CCCCCCCCCCCC(=O)OC[C@@H](O)COP(=O)([O-])OCC[N+](C)(C)C [LPC 22:2] (ion (formula + adduct): [C30H58NO7P+H] 1+)
- TIMS collisional cross section (sample type: plasma): 242 Å²

SMILES: CCCCC/C=C\C/C=C\C/C=C\C/C=C\CCCCCC(=O)OC[C@@H](O)COP(=O)([O-])OCC[N+](C)(C)C [LPC 22:4] (ion (formula + adduct): [C30H54NO7P+H] 1+)
- TIMS collisional cross section (sample type: plasma): 237.55 ± 1.2 Å²

SMILES: CCCCC/C=C\C/C=C\C/C=C\C/C=C\C/C=C\CCC(=O)OC[C@@H](O)COP(=O)([O-])OCC[N+](C)(C)C [LPC 22:5] (ion (formula + adduct): [C30H52NO7P+H] 1+)
- TIMS collisional cross section (sample type: HeLa): 232.9 Å²
- TIMS collisional cross section (sample type: plasma): 233.2 Å²

SMILES: CC/C=C\C/C=C\C/C=C\C/C=C\C/C=C\C/C=C\CCC(=O)OC[C@@H](O)COP(=O)([O-])OCC[N+](C)(C)C [LPC 22:6] (ion (formula + adduct): [C30H50NO7P+H] 1+)
- TIMS collisional cross section (sample type: HeLa): 232.4 Å²
- TIMS collisional cross section (sample type: Liver): 234.5 Å²
- TIMS collisional cross section (sample type: plasma): 233.5 ± 1.3 Å²

SMILES: CC/C=C\C/C=C\C/C=C\C/C=C\C/C=C\C/C=C\CCC(=O)OC[C@@H](O)COP(=O)([O-])OCC[N+](C)(C)C [LPC 22:6_0:0] (ion (formula + adduct): [C30H50NO7P+H] 1+)
- TIMS collisional cross section (sample type: plasma): 233.1 Å²

SMILES: CCCCCCCCCCCCCCCCCCCCCCCC(=O)OC[C@@H](O)COP(=O)([O-])OCC[N+](C)(C)C [LPC 24:0] (ion (formula + adduct): [C32H66NO7P+H] 1+)
- TIMS collisional cross section (sample type: HeLa): 258.5 Å²
- TIMS collisional cross section (sample type: Liver): 258.9 Å²
- TIMS collisional cross section (sample type: plasma): 259.1 Å²

SMILES: CCCCCCCC/C=C\CCCCCCCCCCCCCC(=O)OC[C@@H](O)COP(=O)([O-])OCC[N+](C)(C)C [LPC 24:1] (ion (formula + adduct): [C32H64NO7P+H] 1+)
- TIMS collisional cross section (sample type: HeLa): 253.5 Å²
- TIMS collisional cross section (sample type: Liver): 253.85 ± 0.49 Å²
- TIMS collisional cross section (sample type: plasma): 253.3 Å²

SMILES: CCCCCCCCCCCCCCCCOC[C@@H](O)COP(=O)([O-])OCC[N+](C)(C)C [LPC O- 16:0] (ion (formula + adduct): [C24H52NO6P+H] 1+)
- TIMS collisional cross section (sample type: HeLa): 230.5 Å²
- TIMS collisional cross section (sample type: plasma): 230.6 Å²

SMILES: CCCC/C=C\CCCCCCCCCCOC[C@@H](O)COP(=O)([O-])OCC[N+](C)(C)C [LPC O- 16:1] (ion (formula + adduct): [C24H50NO6P+H] 1+)
- TIMS collisional cross section (sample type: HeLa): 225.4 Å²
- TIMS collisional cross section (sample type: plasma): 224.8 Å²

SMILES: CCCCCCCCCCCCCCCCCCOC[C@@H](O)COP(=O)([O-])OCC[N+](C)(C)C [LPC O- 18:0] (ion (formula + adduct): [C26H56NO6P+H] 1+)
- TIMS collisional cross section (sample type: HeLa): 238.4 Å²
- TIMS collisional cross section (sample type: Liver): 238.2 Å²

SMILES: CCCCCC/C=C\CCCCCCCCCCOC[C@@H](O)COP(=O)([O-])OCC[N+](C)(C)C [LPC O- 18:1] (ion (formula + adduct): [C26H54NO6P+H] 1+)
- TIMS collisional cross section (sample type: HeLa): 233.6 Å²
- TIMS collisional cross section (sample type: plasma): 233.67 ± 0.64 Å²

SMILES: CCCCCCCCCCCCCCCCCCCCOC[C@@H](O)COP(=O)([O-])OCC[N+](C)(C)C [LPC O- 20:0] (ion (formula + adduct): [C28H60NO6P+H] 1+)
- TIMS collisional cross section (sample type: plasma): 245.9 Å²

SMILES: CCCCCCCCCCCCCCCC(=O)O[C@H](CO)COP(=O)(O)OCCN [LPE 16:0] (ion (formula + adduct): [C21H44NO7P+H] 1+)
- TIMS collisional cross section (sample type: Liver): 214.5 Å²

SMILES: CCCCCCCCCCCCCCCC(=O)OC[C@@H](O)COP(=O)(O)OCCN [LPE 16:0] (ion (formula + adduct): [C21H44NO7P+H] 1+)
- TIMS collisional cross section (sample type: HeLa): 214.5 Å²
- TIMS collisional cross section (sample type: Liver): 215.9 ± 2.1 Å²
- TIMS collisional cross section (sample type: plasma): 215.7 ± 2.5 Å²

SMILES: CCCCCCCCCCCCCCCC(=O)OC[C@@H](O)COP(=O)(O)OCCN [LPE 16:0_0:0] (ion (formula + adduct): [C21H44NO7P+H] 1+)
- TIMS collisional cross section (sample type: HeLa): 217.4 Å²

SMILES: CCCCCC/C=C\CCCCCCCC(=O)OC[C@@H](O)COP(=O)(O)OCCN [LPE 16:1] (ion (formula + adduct): [C21H42NO7P+H] 1+)
- TIMS collisional cross section (sample type: Liver): 207.8 Å²
- TIMS collisional cross section (sample type: plasma): 207.4 Å²

SMILES: CCCCCC/C=C\CCCCCCCC(=O)OC[C@@H](O)COP(=O)(O)OCCN [LPE 16:1_0:0] (ion (formula + adduct): [C21H42NO7P+H] 1+)
- TIMS collisional cross section (sample type: HeLa): 210.1 Å²

SMILES: CCCCCCCC/C=C\CCCCCCCC(=O)OC[C@@H](O)COP(=O)(O)OCCN [LPE 18:1] (ion (formula + adduct): [C23H46NO7P+H] 1+)
- TIMS collisional cross section (sample type: HeLa): 216.4 Å²
- TIMS collisional cross section (sample type: Liver): 217 ± 2 Å²
- TIMS collisional cross section (sample type: plasma): 216.93 ± 1.3 Å²

The remaining lines, values ahead:

- TIMS collisional cross section (sample type: HeLa): 221.7 Å²
- TIMS collisional cross section (sample type: Liver): 222 Å²
SMILES: CCCCCCCCCCCCCCCCCC(=O)O[C@H](CO)COP(=O)(O)OCCN [LPE 18:0] (ion (formula + adduct): [C23H48NO7P+H] 1+)

- TIMS collisional cross section (sample type: plasma): 221.8 Å²
SMILES: CCCCCCCCCCCCCCCCCC(=O)OC[C@@H](O)COP(=O)(O)OCCN [LPE 18:0] (ion (formula + adduct): [C23H48NO7P+H] 1+)

- TIMS collisional cross section (sample type: HeLa): 218.1 Å²
- TIMS collisional cross section (sample type: Liver): 215.4 Å²
SMILES: CCCCCC/C=C\CCCCCCCCCC(=O)O[C@H](CO)COP(=O)(O)OCCN [LPE 18:1] (ion (formula + adduct): [C23H46NO7P+H] 1+)

- TIMS collisional cross section (sample type: plasma): 211.2 ± 0.85 Å²
SMILES: CCCCC/C=C\C/C=C\CCCCCCCC(=O)O[C@H](CO)COP(=O)(O)OCCN [LPE 18:2] (ion (formula + adduct): [C23H44NO7P+H] 1+)

- TIMS collisional cross section (sample type: Liver): 211.45 ± 1.1 Å²
- TIMS collisional cross section (sample type: plasma): 214.1 Å²
SMILES: CCCCC/C=C\C/C=C\CCCCCCCC(=O)OC[C@@H](O)COP(=O)(O)OCCN [LPE 18:2] (ion (formula + adduct): [C23H44NO7P+H] 1+)

- TIMS collisional cross section (sample type: plasma): 208.3 Å²
SMILES: CCCCC/C=C\C/C=C\C/C=C\CCCCC(=O)OC[C@@H](O)COP(=O)(O)OCCN [LPE 18:3] (ion (formula + adduct): [C23H42NO7P+H] 1+)

- TIMS collisional cross section (sample type: HeLa): 229.2 Å²
SMILES: CCCCCCCCCCCCCCCCCCCC(=O)OC[C@@H](O)COP(=O)(O)OCCN [LPE 20:0] (ion (formula + adduct): [C25H52NO7P+H] 1+)

- TIMS collisional cross section (sample type: Liver): 223.5 Å²
- TIMS collisional cross section (sample type: plasma): 223.3 Å²
SMILES: CCCCCCCC/C=C\CCCCCCCCCC(=O)OC[C@@H](O)COP(=O)(O)OCCN [LPE 20:1] (ion (formula + adduct): [C25H50NO7P+H] 1+)

- TIMS collisional cross section (sample type: HeLa): 216.8 Å²
- TIMS collisional cross section (sample type: Liver): 217.2 Å²
- TIMS collisional cross section (sample type: plasma): 217.3 Å²
SMILES: CCCCC/C=C\C/C=C\C/C=C\CCCCCCC(=O)OC[C@@H](O)COP(=O)(O)OCCN [LPE 20:3] (ion (formula + adduct): [C25H46NO7P+H] 1+)

- TIMS collisional cross section (sample type: plasma): 214.45 ± 0.92 Å²
SMILES: CCCCC/C=C\C/C=C\C/C=C\C/C=C\CCCC(=O)O[C@H](CO)COP(=O)(O)OCCN [LPE 20:4] (ion (formula + adduct): [C25H44NO7P+H] 1+)

- TIMS collisional cross section (sample type: plasma): 210.7 Å²
SMILES: CC/C=C\C/C=C\C/C=C\C/C=C\C/C=C\CCCC(=O)OC[C@@H](O)COP(=O)(O)OCCN [LPE 20:5] (ion (formula + adduct): [C25H42NO7P+H] 1+)

- TIMS collisional cross section (sample type: HeLa): 236.4 Å²
SMILES: CCCCCCCCCCCCCCCCCCCCCC(=O)OC[C@@H](O)COP(=O)(O)OCCN [LPE 22:0] (ion (formula + adduct): [C27H56NO7P+H] 1+)

- TIMS collisional cross section (sample type: Liver): 223.9 Å²
SMILES: CCCCC/C=C\C/C=C\C/C=C\C/C=C\CCCCCC(=O)O[C@H](CO)COP(=O)(O)OCCN [LPE 22:4] (ion (formula + adduct): [C27H48NO7P+H] 1+)

- TIMS collisional cross section (sample type: HeLa): 223.8 Å²
- TIMS collisional cross section (sample type: plasma): 223.6 Å²
SMILES: CCCCC/C=C\C/C=C\C/C=C\C/C=C\CCCCCC(=O)OC[C@@H](O)COP(=O)(O)OCCN [LPE 22:4] (ion (formula + adduct): [C27H48NO7P+H] 1+)

- TIMS collisional cross section (sample type: HeLa): 220.9 Å²
- TIMS collisional cross section (sample type: Liver): 221 Å²
- TIMS collisional cross section (sample type: plasma): 220.3 ± 1.4 Å²
SMILES: CCCCC/C=C\C/C=C\C/C=C\C/C=C\C/C=C\CCC(=O)OC[C@@H](O)COP(=O)(O)OCCN [LPE 22:5] (ion (formula + adduct): [C27H46NO7P+H] 1+)
